Test results from the Kinase Knowledgebase extract (Sharma et al. 2016).

Experiments:
MAPK14 (human) [1] = molecular target: MAPK14 (human) (UniProt Q16539); assay: Inhibition of TNF-alpha Release in THP-1 Cell; conditions: thp1
MAPK14 (human) [2] = molecular target: MAPK14 (human) (UniProt Q16539); assay: Inhibition of p38 MAP Kinase in Whole Blood
MAPK14 (mouse) = assay: Inhibition of MAPK14 Kinase Activity

Sequence of MAPK14 (human) (Q16539 whole entry, looked up): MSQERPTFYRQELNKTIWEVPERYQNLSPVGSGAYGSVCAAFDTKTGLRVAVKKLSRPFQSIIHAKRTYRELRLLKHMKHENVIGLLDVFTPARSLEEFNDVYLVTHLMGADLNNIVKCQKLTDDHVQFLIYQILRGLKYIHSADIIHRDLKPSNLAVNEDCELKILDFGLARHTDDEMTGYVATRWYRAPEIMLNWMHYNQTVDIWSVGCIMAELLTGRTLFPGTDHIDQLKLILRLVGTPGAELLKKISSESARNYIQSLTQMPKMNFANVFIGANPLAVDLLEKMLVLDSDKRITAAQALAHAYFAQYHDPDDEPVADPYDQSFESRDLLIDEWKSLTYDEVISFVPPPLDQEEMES

Row | SMILES | IC50 (MAPK14 (human) [1]) [nM] | IC50 (MAPK14 (human) [2]) [nM] | IC50 (MAPK14 (mouse)) [nM]
1 | O=C1NCc2nc(Sc3ccc(F)cc3F)c(NC3CCNCC3)cc2N1c1c(Cl)cccc1Cl | 9 | 17 | –
2 | CN(C)CCN1CCN(c2cc3c(nc2Sc2ccc(F)cc2F)CNC(=O)N3c2c(Cl)cccc2Cl)CC1 | 0.7 | 14 | –
3 | O=C1NCc2nc(Sc3ccc(F)cc3F)c(N3CCC(CCN4CCCC4)CC3)cc2N1c1c(Cl)cccc1Cl | 7.3 | 940 | –
4 | O=C1NCc2nc(Sc3ccc(F)cc3F)c(N3CC4CC3CN4CC3CC3)cc2N1c1c(Cl)cccc1Cl (centres undefined) | 1.2 | 51 | –
5 | O=C1NCc2nc(Sc3ccc(F)cc3F)c(N3CCOCC3)cc2N1c1c(Cl)cccc1Cl | 22 | 400 | –
6 | O=C1NCc2nc(Sc3ccc(F)cc3F)c(OC3CCNCC3)cc2N1c1c(Cl)cccc1Cl | – | 63 | –
7 | CCN1CC2CC1CN2c1cc2c(nc1Sc1ccc(F)cc1F)CNC(=O)N2c1c(Cl)cccc1Cl (centres undefined) | 1.3 | 42 | –
8 | O=c1ncc2nc(Sc3ccc(F)cc3F)ccc2n1-c1c(Cl)cccc1Cl | – | – | 600
9 | O=C1NCc2nc(Sc3ccc(F)cc3F)c(N3CCN(CCN4CCCC4)CC3)cc2N1c1c(Cl)cccc1Cl | 2 | 9 | –
10 | O=C1NCc2nc(Sc3ccc(F)cc3F)c(N3CC4CC3CN4C3CC3)cc2N1c1c(Cl)cccc1Cl (centres undefined) | 8.2 | 220 | –

Now from value to molecule:

Row | IC50 (MAPK14 (human) [1]) [nM] | IC50 (MAPK14 (human) [2]) [nM] | IC50 (MAPK14 (mouse)) [nM] | SMILES
11 | 1.5 | 11.2 | – | O=C1NCc2nc(Sc3ccc(F)cc3F)c(N3CC4CC3CN4)cc2N1c1c(Cl)cccc1Cl (centres undefined)
12 | 5 | 20 | – | O=C1NCc2nc(Sc3ccc(F)cc3F)c(N3CCNCC3)cc2N1c1c(Cl)cccc1Cl
13 | – | 170 | – | CC(C)N1CCN(c2cc3c(nc2Sc2ccc(F)cc2F)CNC(=O)N3c2c(Cl)cccc2Cl)CC1
14 | 500 | – | – | O=C1NCc2nc(Sc3ccc(F)cc3F)c(N3CCCCC3)cc2N1c1c(Cl)cccc1Cl
15 | 1.6 | 65 | – | CC(C)N1CC2CC1CN2c1cc2c(nc1Sc1ccc(F)cc1F)CNC(=O)N2c1c(Cl)cccc1Cl (centres undefined)
16 | 500 | – | – | O=C1NCc2nc(Sc3ccc(F)cc3F)c(N3CC4CCC3C4)cc2N1c1c(Cl)cccc1Cl (centres undefined)
17 | 25 | 72 | – | CC1CN(c2cc3c(nc2Sc2ccc(F)cc2F)CNC(=O)N3c2c(Cl)cccc2Cl)CC(C)O1 (centres undefined)
